Assay [1] relates to PAF-induced bronchial asthma. Kind of assay: Asthma-protective action in guinea pigs: PAF-induced bronchial asthma (inhalation, dual-chamber body plethysmograph). It is filed as in vivo, guinea pig. To be noted: for effects on PAF-induced and allergic reactions compared with androsin (in words): PAF-induced and allergic (ovalbumin) reactions. As to the method: (§1) b) Asthma-protective action of the acetophenone compound in guinea pigs.
(§2) Male white "Pirbright" guinea pigs were sensitized to ovalbumin by means of the well-known methods. Inhalation experiments were conducted 4 to 6 weeks later.
(§3) Spontaneously breathing animals were placed in a dual-chamber body plethysmograph in which the two chambers were separated around the head of the animals by a rubber collar filled with water. Changes in volume in the two chambers were measured by means of pressure transfer systems. The degree of bronchial obstruction was determined by means of the parameter, "compressed air". This technique is ten times more sensitive than other invasive methods (Dorsch et al., Pflugers Arch., 1981, 391: 236 to 241).
(§4) Groups of 10 to 14 animals were divided into two sub-groups and either treated with the test substance or with a solution. Three or four days later the experiments were repeated with those animals which had previously been given the control being given the test substance and vice-versa (each animal was once given either the test substance or the solvent).
Ovalbumin, histamine and acetylcholine were dissolved in saline solution; PAF was first dissolved in ethanol and then in saline solution containing 0.25% of bovine serum albumin to a final concentration of 1 μg PAF per ml. Ovalbumin, PAF, histamine and acetylcholine were administered in the form of an aerosol produced by ultrasound.
The effect of the test substance on the PAF-induced hyperreactivity was studied by means of successive inhalation of histamine, PAF and histamine. One group of animals was divided into two sub-groups with both sub-groups inhaling histamine in a dose leading to moderate bronchial obstruction. One hour later, one group was given the substance to be tested and the other group was given the solvent alone. Both groups were induced later by the successive inhalation of PAF and histamine. First 1 μg of PAF and 60 minutes later the same dose of histamine as before was given. The second contact with histamine in control animals usually leads to asthmatic reactions which are three times as great as after the first contact, […]

Assay [2] has as its system human peripheral leukocytes. The experiment in a line: Inhibition of histamine release from human peripheral leukocytes. In kind it is cell-based. To be noted: for inhibition at 0.1 µg/mL / inhibition at 1 µg/mL / inhibition at 10 µg/mL / inhibition at 100 µg/mL: Homo sapiens, Leukocyte; for inhibition at 0.1 µg/mL: 0.0001 mg/ml; for inhibition at 1 µg/mL: 0.001 mg/ml; for inhibition at 10 µg/mL: 0.01 mg/ml; for inhibition at 100 µg/mL: 0.1 mg/ml. As to the method:
Venous blood was withdrawn from atopic donors and the peripheral leukocytes were obtained by means of dextran sedimentation. The purified cells were preincubated with three or four different concentrations of the substance to be tested and with the solvent alone. After 10 minutes, rabbit antihuman IgE antibodies, plasma containing anaphylatoxin (C5a) according to Vallota and Muller-Eberhard, calcium ionophore or saline solution were added to the cells. 30 minutes later, the reaction was stopped and the histamine concentration was measured in the […] by means of spectrofluorometry.
The results are shown in table 1 with the inhibition of the histamine release shown in percent of the maximal release by perchloric acid, corrected by the spontaneous release without stimulation.

The subject of assay [3] is allergic bronchial asthma (ovalbumin inhalation). Kind of assay: Asthma-protective action in guinea pigs: allergic (ovalbumin-induced) bronchial asthma (inhalation, dual-chamber body plethysmograph). It is filed as in vivo, guinea pig. As to the method:
as §1, §2, §3, §4
Ovalbumin, histamine and acetylcholine were dissolved in saline solution; PAF was first dissolved in ethanol and then in saline solution containing 0.25% of bovine serum albumin to a final concentration of 1 μg PAF per ml. […]

Setting [4] is: oral dose of 10 mg/kg body weight.
Setting [5] is: A 12387 (calcium ionophore) stimulus.

By inhibition is commonly meant the relative decrease from the control value, in per cent.

`COc1ccc(C(=O)CO)c(OC)c1` [2,4-dimethoxy-2-hydroxyacetophenone]: the “effects on PAF-induced and allergic reactions compared with androsin (in words)” value in assay [1] is recorded as “Essentially, the same effects are achieved”.
For the compound `COc1cc(C(C)=O)ccc1O[C@@H]1O[C@H](CO)[C@@H](O)[C@H](O)[C@H]1O` [Androsin, androsin], the “reduction of PAF-induced reactions” value in assay [1] (aerosol, 0.5 mg/animal) was determined as 72%. In assay [1] (setting [4]), the “reduction of PAF-induced bronchial asthma in vivo” value was 72%. Besides, in assay [2] (setting [5]), the inhibition at 0.1 µg/mL was -3.6%, the inhibition at 1 µg/mL is -0.4%, the inhibition at 10 µg/mL was -14.9% and the inhibition at 100 µg/mL is -12.5%. In assay [2] (C5a stimulus), the inhibition at 0.1 µg/mL is -5.4%, the inhibition at 1 µg/mL is -4.5%, the inhibition at 10 µg/mL was found to be 3.7% and the inhibition at 100 µg/mL was -4.3%. For the same compound, in assay [2] (α-IgE stimulus), the inhibition at 0.1 µg/mL stood at 2.8%, the inhibition at 1 µg/mL was found to be 0.5%, the inhibition at 10 µg/mL came to 5.5% and the inhibition at 100 µg/mL is 10.9%. Besides, the “inhibition of histamine release in vitro (in words)” value in assay [2] (in vitro experiment of table 1) is reported as “not effective”. Besides, the “reduction of allergic reactions” value in assay [3] (aerosol, 0.5 mg/animal) is listed as 67%. Besides, the “reduction of allergic bronchial asthma in vivo” value in assay [3] (setting [4]) turned out to be 67%.
Turning to `COc1cc(C(C)=O)ccc1O` [apocynin], in assay [1], the “effects on PAF-induced and allergic reactions compared with androsin (in words)” value was “Essentially, the same effects are achieved”.

For the origin of these results see patent US5481043A, “Phenone compounds, manufacturing method and pharmaceutical preparations containing them” (priority 1991, dated 1996).
